Data taken from ChEMBL document CHEMBL1201862, “PubChem BioAssay data set” (2004).
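Each compound was tested at five concentrations against cells in 96-well plates for 48 hours. The concentration for 50% growth inhibition is given as GI50.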 Calls of active or inactive are those of the source. Rule as the data show it: active = GI50 up to about 1.1 µM and inactive = higher.

Tests used:
Experiment in all cases: DTP human tumour cell line panel, 48 h
DU-145 = test system: DU-145
HT-29 = test system: HT-29
HCT-116 = test system: HCT-116
RXF 393 = test system: RXF 393
OVCAR-5 = test system: OVCAR-5
SW-620 = test system: SW-620
HL-60 = test system: HL-60
HCT-15 = test system: HCT-15
A549 = test system: A549
SR = test system: SR
SNB-75 = test system: SNB-75
SNB-19 = test system: SNB-19
IGROV-1 = test system: IGROV-1
PC-3 = test system: PC-3
ACHN = test system: ACHN
786-0 = test system: 786-0
OVCAR-8 = test system: OVCAR-8
NCI-H226 = test system: NCI-H226
SK-MEL-2 = test system: SK-MEL-2

SMILES	GI50 (DU-145)	GI50 (HT-29)	GI50 (HCT-116)	GI50 (RXF 393)	GI50 (OVCAR-5)	GI50 (SW-620)	GI50 (HL-60)	GI50 (HCT-15) [µM]	GI50 (A549)	GI50 (SR)	GI50 (SNB-75)	GI50 (SNB-19)	GI50 (IGROV-1)	GI50 (PC-3)	GI50 (ACHN)	GI50 (786-0)	GI50 (OVCAR-8)	GI50 (NCI-H226)	GI50 (SK-MEL-2)
CCC(=O)C1(c2ccccc2)CCN(C)CC1	> 100 µM (inactive)	> 100 µM (inactive)	> 100 µM (inactive)	> 100 µM (inactive)	> 100 µM (inactive)	> 100 µM (inactive)	> 100 µM (inactive)	> 100	> 100 µM (inactive)	> 100 µM (inactive)	> 100 µM (inactive)	> 100 µM (inactive)	> 100 µM (inactive)	> 100 µM (inactive)	> 100 µM (inactive)	> 100 µM (inactive)	> 100 µM (inactive)	–	–
COc1ccc(-c2nc(O)c3ccccc3n2)cc1OC	> 100 µM (inactive)	> 100 µM (inactive)	> 100 µM (inactive)	26.4 µM (inactive)	> 100 µM (inactive)	> 100 µM (inactive)	–	50	94.4 µM (inactive)	> 100 µM (inactive)	23.8 µM (inactive)	31.2 µM (inactive)	24.6 µM (inactive)	> 100 µM (inactive)	–	36.1 µM (inactive)	24.4 µM (inactive)	18.4 µM (inactive)	98.4 µM (inactive)
C1CNCCNCCN1	> 100 µM (inactive)	> 100 µM (inactive)	> 100 µM (inactive)	> 100 µM (inactive)	> 100 µM (inactive)	> 100 µM (inactive)	> 100 µM (inactive)	> 100	> 100 µM (inactive)	> 100 µM (inactive)	–	> 100 µM (inactive)	> 100 µM (inactive)	> 100 µM (inactive)	> 100 µM (inactive)	> 100 µM (inactive)	> 100 µM (inactive)	> 100 µM (inactive)	> 100 µM (inactive)
OC(C#Cc1ccccc1)(c1ccccc1)c1ccccc1	30.1 µM (inactive)	26.7 µM (inactive)	> 100 µM (inactive)	–	30.5 µM (inactive)	28.4 µM (inactive)	38.6 µM (inactive)	39.5	21.2 µM (inactive)	37.4 µM (inactive)	55.3 µM (inactive)	70.6 µM (inactive)	43.7 µM (inactive)	31.9 µM (inactive)	39 µM (inactive)	> 100 µM (inactive)	63.5 µM (inactive)	26.2 µM (inactive)	23.8 µM (inactive)
O=c1c2cc([N+](=O)[O-])cnc2sn1-c1ccc(Oc2ccccc2)cc1	24.8 µM (inactive)	62.5 µM (inactive)	25.2 µM (inactive)	–	58.3 µM (inactive)	57 µM (inactive)	39.9 µM (inactive)	> 100	> 100 µM (inactive)	49.2 µM (inactive)	51.6 µM (inactive)	32.6 µM (inactive)	82.8 µM (inactive)	39.9 µM (inactive)	53.1 µM (inactive)	43.5 µM (inactive)	82.8 µM (inactive)	45.2 µM (inactive)	26.7 µM (inactive)
COc1nc(C#CCCCC#N)nc(OC)n1	8.93 µM (inactive)	24.3 µM (inactive)	8.79 µM (inactive)	15.6 µM (inactive)	13.5 µM (inactive)	15 µM (inactive)	4.13 µM (inactive)	3.29	15.8 µM (inactive)	7.38 µM (inactive)	19.5 µM (inactive)	77.3 µM (inactive)	17.3 µM (inactive)	13.2 µM (inactive)	8.93 µM (inactive)	11.1 µM (inactive)	21.2 µM (inactive)	–	16 µM (inactive)
CN1C(=O)C2(C=CC(O)CC2)c2ccccc21 (stereo not given)	> 100 µM (inactive)	> 100 µM (inactive)	> 100 µM (inactive)	–	> 100 µM (inactive)	> 100 µM (inactive)	> 100 µM (inactive)	> 100	> 100 µM (inactive)	> 100 µM (inactive)	> 100 µM (inactive)	> 100 µM (inactive)	> 100 µM (inactive)	> 100 µM (inactive)	> 100 µM (inactive)	> 100 µM (inactive)	> 100 µM (inactive)	> 100 µM (inactive)	> 100 µM (inactive)
O=c1ss/c(=N\c2ccccc2)n1-c1ccccc1	16.9 µM (inactive)	38.5 µM (inactive)	–	–	40.2 µM (inactive)	24.4 µM (inactive)	31.1 µM (inactive)	17.8	35.4 µM (inactive)	17.3 µM (inactive)	21.9 µM (inactive)	62.5 µM (inactive)	–	19.5 µM (inactive)	17.1 µM (inactive)	18.3 µM (inactive)	16.8 µM (inactive)	20.1 µM (inactive)	23.2 µM (inactive)
